Experimental data from US20140303246A1, “USE OF ADAMANTANE DERIVATIVES FOR THE TREATMENT OF ACTINIC KERATOSIS” (MERZ Pharma GmbH & Co. KGaA, priority 2011, published 2014).

Assays:
[1] = tested on: NHEK cells; experiment: Release of cytoplasmatic lactate dehydrogenase (LDH) to monitor cell death / membrane damage; assay type: cell-based, human
Description: (§1) For each of these compounds, the same experiments were performed in an analogous fashion to the compound of Example 1 except that the test items were prepared in separate plates starting with the double concentrated maximal test concentration followed by a 1:3 serial dilution and then added to the cells. The test items were tested at 6 replicates/concentration. In addition to metabolic activity also the release of cytoplasmatic-lactate dehydrogenase (LDH) was used to monitor cell death. Early release (after 6 hrs) indicate membrane damage a primary mode of action

[2] = tested on: primary human epidermal keratinocytes (NHEK); experiment: Resazurin assay, viability of cells by metabolic activity; assay type: cell-based
Description: (§2) By using primary human epidermal keratinocytes (NHEK, FIG. 1) the cytolytic potential of several drug compound was investigated.
(§3) The viability of the cells was monitored by their metabolic activity using the Resazurin—assay. Eight different concentrations (up to 1 mM) of amantadine were investigated. Viability of the cells was plotted against the different concentration of test compound.
(§4) From the resulting sigmoid-curve the IC50 value for the cytolytic effect was determined and given in the respective figure. FIG. 1 depicts the relative viability vs. the concentration on NHEK cells using metabolic activity as read-out.
as §1

[3] = as above; assay type: cell-based; details: human, primary human epidermal keratinocytes (NHEK), metabolic activity (Resazurin) as read-out, read-out: IC50 for the cytolytic/cytotoxic effect based on metabolic activity
Description: as §2, §3, §4, §1

## CC12CC3CC(C)(C1)CC(N)(C3)C2 [Memantine, 3,5-dimethyladamantan-1-amine]
[1]
  LDH-release at 6 hrs (early membrane damage): early membrane damage
[2]
  cytotoxic effect (in words): clear cytotoxic activity
[3]
  IC50: 330 µM

## CC(N)C12CC3CC(CC(C3)C1)C2 (stereo not shown) [Rimantadine, 1-(1-adamantyl)ethanamine]
[3]
  IC50: 660 µM
